Data taken from ChEMBL document CHEMBL1130833, “Inhibition of electric eel acetylcholinesterase by porphin compounds” (Bioorg Med Chem Lett, 1998).

Biological target: Acetylcholinesterase (Electrophorus electricus, UniProt O42275)
Assay: Compound was evaluated for inhibitory constant for the electric eel Acetylcholinesterase (AChE)

Chain of Acetylcholinesterase (O42275 whole entry): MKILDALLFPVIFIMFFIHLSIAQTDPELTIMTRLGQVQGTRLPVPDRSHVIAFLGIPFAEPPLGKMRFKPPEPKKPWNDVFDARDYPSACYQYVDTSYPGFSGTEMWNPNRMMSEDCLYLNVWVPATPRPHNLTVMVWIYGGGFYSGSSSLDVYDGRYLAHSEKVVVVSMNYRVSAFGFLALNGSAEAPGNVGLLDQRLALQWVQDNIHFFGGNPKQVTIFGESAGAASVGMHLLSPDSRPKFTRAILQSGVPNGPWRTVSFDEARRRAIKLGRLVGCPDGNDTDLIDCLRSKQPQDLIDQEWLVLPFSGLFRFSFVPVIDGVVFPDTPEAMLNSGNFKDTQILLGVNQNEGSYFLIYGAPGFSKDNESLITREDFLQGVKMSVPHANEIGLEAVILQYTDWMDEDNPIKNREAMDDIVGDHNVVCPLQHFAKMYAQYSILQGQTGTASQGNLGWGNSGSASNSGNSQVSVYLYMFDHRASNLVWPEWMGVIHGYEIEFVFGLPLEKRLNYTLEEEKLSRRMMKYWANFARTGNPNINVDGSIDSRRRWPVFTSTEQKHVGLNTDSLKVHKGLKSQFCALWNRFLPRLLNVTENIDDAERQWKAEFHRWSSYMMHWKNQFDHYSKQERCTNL

Structure (SMILES)	Ki (tested as the Zn salt or complex)	Ki
C1=Cc2nc1c(-c1ccccc1)c1ccc([nH]1)c(-c1ccccc1)c1nc(c(-c3ccccc3)c3ccc([nH]3)c2-c2ccccc2)C=C1	5390 nM	
Fc1cccc(F)c1-c1c2nc(c(-c3c(F)cccc3F)c3ccc([nH]3)c(-c3c(F)cccc3F)c3ccc([nH]3)c(-c3c(F)cccc3F)c3nc1C=C3)C=C2		12 nM
Fc1ccc(-c2c3nc(c(-c4ccc(F)cc4F)c4ccc([nH]4)c(-c4ccc(F)cc4F)c4ccc([nH]4)c(-c4ccc(F)cc4F)c4nc2C=C4)C=C3)c(F)c1		5 nM
